Results taken from the NIST ThermoML archive (doi:10.1021/acs.jced.7b00519).
Several values for one entry are separate records, joined by “and”; a condition that tells them apart may be missing. Identical values can stand only once.

Settings: horizontal capillary tube

O [water]
Settings	surface tension liquid-gas
249.9 K, Metastable liquid	78.88 mN/m and 78.87 mN/m
249.91 K, Metastable liquid	78.91 mN/m
250.79 K, Metastable liquid	78.85 mN/m
250.8 K, Metastable liquid	78.72 mN/m
250.81 K, Metastable liquid	78.72 mN/m
250.82 K, Metastable liquid	78.72 mN/m and 78.77 mN/m and 78.69 mN/m
251.37 K, Metastable liquid	78.69 mN/m and 78.66 mN/m
251.39 K, Metastable liquid	78.68 mN/m
251.91 K, Metastable liquid	78.65 mN/m
251.92 K, Metastable liquid	78.65 mN/m
252.81 K, Metastable liquid	78.39 mN/m
252.82 K, Metastable liquid	78.47 mN/m
252.86 K, Metastable liquid	78.51 mN/m and 78.48 mN/m and 78.47 mN/m
252.88 K, Metastable liquid	78.38 mN/m and 78.4 mN/m and 78.41 mN/m
253.36 K, Metastable liquid	78.37 mN/m and 78.4 mN/m
253.79 K, Metastable liquid	78.34 mN/m
253.81 K, Metastable liquid	78.27 mN/m
254.9 K, Metastable liquid	78.3 mN/m
254.91 K, Metastable liquid	78.28 mN/m
255.29 K, Metastable liquid	78.03 mN/m
255.32 K, Metastable liquid	78.13 mN/m
255.33 K, Metastable liquid	78.15 mN/m
255.34 K, Metastable liquid	78.07 mN/m [middle of 4 runs]
255.84 K, Metastable liquid	78.05 mN/m and 78.06 mN/m
255.85 K, Metastable liquid	78.07 mN/m
256.33 K, Metastable liquid	77.91 mN/m
256.34 K, Metastable liquid	77.97 mN/m
256.87 K, Metastable liquid	77.86 mN/m and 77.87 mN/m
257.83 K, Metastable liquid	77.72 mN/m
257.84 K, Metastable liquid	77.75 mN/m
257.87 K, Metastable liquid	77.94 mN/m
257.88 K, Metastable liquid	77.92 mN/m
258.8 K, Metastable liquid	77.63 mN/m
258.81 K, Metastable liquid	77.61 mN/m
259.3 K, Metastable liquid	77.59 mN/m and 77.6 mN/m
259.8 K, Metastable liquid	77.54 mN/m and 77.5 mN/m
260.83 K, Metastable liquid	77.35 mN/m
260.84 K, Metastable liquid	77.36 mN/m
261.8 K, Metastable liquid	77.24 mN/m
261.81 K, Metastable liquid	77.2 mN/m
262.27 K, Metastable liquid	77.23 mN/m
262.28 K, Metastable liquid	77.21 mN/m
262.82 K, Metastable liquid	77.04 mN/m and 77.06 mN/m
262.83 K, Metastable liquid	77.07 mN/m
263.26 K, Metastable liquid	77 mN/m
263.27 K, Metastable liquid	77.01 mN/m
263.76 K, Metastable liquid	76.93 mN/m
263.77 K, Metastable liquid	76.91 mN/m and 76.87 mN/m
265.74 K, Metastable liquid	76.71 mN/m
265.75 K, Metastable liquid	76.75 mN/m
265.76 K, Metastable liquid	76.61 mN/m and 76.68 mN/m and 76.64 mN/m
265.77 K, Metastable liquid	76.6 mN/m
265.78 K, Metastable liquid	76.61 mN/m
266.23 K, Metastable liquid	76.6 mN/m and 76.58 mN/m
266.74 K, Metastable liquid	76.55 mN/m and 76.54 mN/m
268.21 K, Metastable liquid	76.34 mN/m and 76.3 mN/m
268.7 K, Metastable liquid	76.22 mN/m
269.18 K, Metastable liquid	76.23 mN/m
269.19 K, Metastable liquid	76.24 mN/m
269.36 K, Metastable liquid	76.19 mN/m
269.69 K, Metastable liquid	76.1 mN/m
270.17 K, Metastable liquid	76.05 mN/m
270.65 K, Metastable liquid	76.02 mN/m
270.67 K, Metastable liquid	76.02 mN/m
272.68 K, Metastable liquid	75.72 mN/m
272.69 K, Metastable liquid	75.75 mN/m
273.56 K, Metastable liquid	75.62 mN/m
273.61 K, Metastable liquid	75.56 mN/m
273.64 K, Metastable liquid	75.58 mN/m
273.69 K, Metastable liquid	75.61 mN/m and 75.64 mN/m
275.62 K, Liquid	75.24 mN/m
275.63 K, Liquid	75.28 mN/m and 75.24 mN/m
276.61 K, Liquid	75.19 mN/m
276.63 K, Liquid	75.19 mN/m and 75.16 mN/m
278.09 K, Liquid	74.96 mN/m
278.11 K, Liquid	74.98 mN/m
279.56 K, Liquid	74.68 mN/m
279.58 K, Liquid	74.74 mN/m
280.58 K, Liquid	74.59 mN/m
280.59 K, Liquid	74.56 mN/m and 74.58 mN/m
281.55 K, Liquid	74.41 mN/m
282.06 K, Liquid	74.39 mN/m and 74.37 mN/m
283.5 K, Liquid	74.17 mN/m
283.59 K, Liquid	74.17 mN/m
283.6 K, Liquid	74.15 mN/m
283.67 K, Liquid	74.15 mN/m
284.61 K, Liquid	74.14 mN/m
284.62 K, Liquid	74.11 mN/m
292 K, Liquid	72.91 mN/m and 72.88 mN/m
293.63 K, Liquid	72.7 mN/m and 72.67 mN/m
293.66 K, Liquid	72.67 mN/m and 72.7 mN/m
295.63 K, Liquid	72.36 mN/m
295.65 K, Liquid	72.33 mN/m
